# Measured values: patent US20250208149A1, “WEE1 COMPOUND FOR TREATING UTERINE SEROUS CARCINOMA” (Recurium IP Holdings, LLC, priority 2022, published 2025)
# What was measured:
# Type in all cases: cell-based
# [1] = system: HEC-59 endometrial cancer cells; assay: Percent inhibition of cell growth, ZN-c3, LB-100 or ZN-c3+LB-100 (cell titer glow); conditions: HEC-59 (PPP2R1A wild-type), 72 hours; ZN-c3 400 nM, LB-100 1 μM
# Procedure: (§1) FIG. 18 depicts the percent inhibition of cell growth in HEC-59 endometrial cancer cells after treatment with ZN-c3 alone, the PP2A catalytic inhibitor LB-100 alone, or the combination of ZN-c3+LB-100. HEC-59 cell line is PPP2R1A wild-type. […] Percent inhibition is calculated using cell titer glow analysis.
# (§2) Various cancer cell lines were treated with ZN-c3 alone, the PP2A catalytic inhibitor LB-100 alone, or the combination of ZN-c3+LB-100. As in Example 1 and Example 2, the treatment period was 72 hours and percent inhibition was calculated using cell titer glow analysis.
# The endometrial cancer cell line HEC-59 was assessed for sensitivity to ZN-c3 alone, LB-100 alone, or the combination of ZN-c3+LB-100 (FIG. 18).
# [2] = system: OV17R ovarian cancer cells; assay: as above; conditions: 72 h, read-out: percent inhibition of cell growth
# Procedure: FIG. 19 depicts the percent inhibition of cell growth in OV17R ovarian cancer cells after treatment with ZN-c3 alone, the PP2A catalytic inhibitor LB-100 alone, or the combination of ZN-c3+LB-100. OV17R has the PPP2R1A missense mutation S256F. Percent inhibition is calculated using cell titer glow analysis.
# as §2, with “Following observations that both knockdown and knockout of PPP2R1A could sensitize cancer cells to Zn-C3, the effects of pharmacological inhibition of PPP2R1A with the catalytic inhibitor LB-100 were evaluated. Various” for “Various”
# The ovarian cancer cell line OV17R was assessed for sensitivity to ZN-c3 alone, LB-100 alone, or the combination of ZN-c3+LB-100 (FIG. 19).
# [3] = system: HEC-59 endometrial cancer cells; assay: Percent inhibition of cell growth, ZN-c3, LB-100 or ZN-c3+LB-100 after siCTRL or siPPP2R1A (cell titer glow); conditions: 72 hours, ZN-c3 300 nM, LB-100 1 μM
# Procedure: as §1, with “20” for “18”, “ZN-c3+LB-100 after siRNA mediated knockdown of PPP2R1A.” for “ZN-c3+LB-100. HEC-59 cell line is PPP2R1A wild-type.”
# as §2
# The endometrial cancer cell line HEC-59 was assessed for sensitivity to ZN-c3 alone, LB-100 alone, or the combination of ZN-c3+LB-100 following treatment with siCTRL or siPPP2R1A (FIG. 20).
# [4] = system: HEC1B endometrial cancer cells; assay: as above; conditions: Homo sapiens, HEC-1B, 72 h, read-out: percent inhibition of cell growth
# Procedure: as §1, with “21” for “18”, “HEC1B” for “HEC-59”, “ZN-c3+LB-100 after siRNA mediated knockdown of PPP2R1A.” for “ZN-c3+LB-100. HEC-59 cell line is PPP2R1A wild-type.”
# as §2, with “Following observations that both knockdown and knockout of PPP2R1A could sensitize cancer cells to Zn-C3, the effects of pharmacological inhibition of PPP2R1A with the catalytic inhibitor LB-100 were evaluated. Various” for “Various”
# The endometrial cancer cell line HEC1B was also assessed for sensitivity to ZN-c3 alone, LB-100 alone, or the combination of ZN-c3+LB-100 following treatment with siCTRL or siPPP2R1A (FIG. 21).
structure (smiles),measurement,setting,value
"CN1CCN(C(=O)C2C(C(=O)O)[C@H]3CC[C@@H]2O3)CC1 (some centres unmarked) [LB-100, reference compound]",percent inhibition of cell growth,[1],approximately half of that value
same,inhibition at 1 µM,[2],~12%
same,percent inhibition of cell growth,"[3]; HEC-59, siCTRL",approximately half of that value
same,percent inhibition in siPPP2R1A treated cells compared to siCTRL treated cells,"[3]; HEC-59, siPPP2R1A",only slightly enhanced
same,inhibition at 1 µM,[4],25%
